Data reported in patent publication US12042479B2, “Use of topical formulations of cannabinoids in the treatment of epidermolysis bullosa and related connective tissue disorders” (priority 2016, dated 2024).
“Also recorded” adds a separate entry of the source. Like-named read-outs stand apart in the source and are kept apart here.

What was measured:
αSMA = test: TGFβ1-induced αSMA expression in human fibroblasts (immunoblot); assay type: cell-based; details: αSMA/HSP90 ratio, FIG. 23
Method: Experimental Design: HaCaT and HFL-1 cells cultured in 24-well plates (1×10^5 cells/well/mL) in DMEM supplemented with 1% FBS and antibiotics/antimycotics in the presence of INM-501, INM-509, INM-505, INM-506, INM-513 (cannabigerol (CBG)), INM-517, HU-210 ((6aR,10aR)-9-(hydroxymethyl)-6,6-dimethyl-3-(2-methyloctan-2-yl)-6H,6aH,7H,10H,10aH-benzo[c]isochromen-1-ol)), and SR144528 (all at 1 μM concentration, EchoPharmaceuticals, AT Nijmegen, The Netherlands, Cayman Chemical, Ann Arbor, MI) alone or with simultaneously added human recombinant TGFβ1 at 10 and 20 ng/ml concentrations for 72 hr. Cell culture supernatants were removed and cells were lyzed with Cell Protein Extraction Buffer supplemented with Proteinases/Phosphatases Inhibitors Cocktail. […]
(§1) Assay Procedures: EMT induced by TGFβ1 in keratinocytes was analyzed by expression of human E-Cadherin (E-CDH) and Cellular Fibronectin (FBN-EDA). Fibroblast activation and differentiation was determined by αSMA expression. E-CDH, FBN-EDA and αSMA proteins were determined by SDS-PAGE and Immunobloting using mouse anti-human E-CDH, FBN-EDA and αSMA monoclonal antibodies. […] Density of the bands was quantified in two infrared channels independently using Odyssey software 2.1 (LI-COR Biosciences). The results are expressed as a protein/β-tubulin/HSP90 density ratio.

CB1 receptor = CB1 receptor expression by human fibroblasts under TGFβ1 (western blot); assay type: cell-based; details: CB1 receptor/HSP90 ratio, FIG. 22
CCL2/MCP-1 = assay type: cell-based, human
[1] = system: keratins K5, K6, K14, K15, K16, K17; test: Keratin expression in HaCaT keratinocytes by Western blot; assay type: cell-based, human; details: for expression of K15: Western blot, cells pretreated with IFNγ/TNFα, FIG. 6 right; for K5 protein expression / K14 protein expression / K15 protein expression / K16 protein expression / K17 protein expression: post-differentiating human keratinocyte cells, concentration dependent effect, FIG. 20
Method: Cell culturing was performed as follows: HaCaT, human immortalized keratinocyte cell line was cultured in Dulbecco's Modified Eagle Medium (DMEM; Life Technologies Hungary Ltd.) supplemented with 10 (V/V) % fetal bovine serum (FBS; Life Technologies Hungary Ltd.) and antibiotics mixture (penicillin and streptomycin in 1:100; PAA Laboratories GmbH, Pasching, Austria) and Fungizone® Antimicotic (in 1:200; Life Technologies Hungary Ltd.) respectively.
Cells were cultured at 37° C. in humidified, 5% CO2-containing atmosphere, the medium was changed every other day, and cells were sub-cultured at 70-80% confluence in all cases. For the drug treatment, the medium was changed every day.
Western blotting was used to determine the expression of keratins in HaCaT cells. The initial cell count was 2×10^5 cells/per Petri dish in “small” (d=35 mm) Petri dishes in 1.5 mL culture medium (DMEM supplemented with FBS (10%), antibiotics and antimycotics). Cells were harvested at the following stages: preconfluent (proliferating) and postconfluent (differentiating). The combinations employed for Western blotting were cannabidiols:cannabinol (1:0.1 μM), cannabidiols:cannabinol (0.1:1 μM), and cannabidiols:cannabinol (1:1 μM). The genes whose expression was investigated by Western blotting were GAPDH or β-actin as internal controls and (K1), K5, K6, (K10), K14, K15, K16, and K17. Protein samples were used at 5 μl/well. The standards used were PageRuler Plus Prestained (Pierce). Electrophoresis was at 100 volts.
Transfer was performed using the Trans-Blot® Turbo™ Transfer System (1.3 A, 25 V, 7 min). The primary antibody was used at 1:100 in 5% milk containing PBS; overnight at 4° C.; the primary antibody was guinea pig anti-human keratins: anti human Keratin 1, Keratin 5, Keratin 6, Keratin 14, Keratin 15, Keratin 16, Keratin 17 (from Lutz Langbein; predicted band: […]). The secondary antibody was used at 1:1000 in 5% milk containing PBS; 1 hr at RT; the secondary antibody was HRP-conjugated goat anti-Guinea Pig IgG (Santa Cruz). The loading controls were Rabbit anti-human GAPDH (Novus Biologicals; Cat. No.: NB300-322; predicted band: ˜37 kDa) or anti-human β-actin (Sigma-Aldrich; Cat. No.: A2668; predicted band: ˜42 kDa) 1:1000 in 5% milk containing PBS. HRP-conjugated goat anti-rabbit IgG Fc-segment (BioRad 170-6515; 1:1000) was used.
For statistical analysis, data were analyzed and graphs were plotted by using Origin Pro Plus 6.0 software (Microcal, Northampton, MA, USA), using Student's two-tailed two samples t-test and P<0.05 values were regarded as significant differences.

IL-8 = IL-8 production by human keratinocytes; assay type: cell-based; details: basal, FIG. 13
IL-6 = test: IFNγ/TNFα-induced IL-6 production by human keratinocytes; assay type: cell-based; details: FIG. 13
[2] = Skin penetration, Franz diffusion cell; assay type: in vitro ADME, porcine; details: after 18 hours at 32° C.; 400 μg applied; LABRASOL/Plo-gel formulation; FIG. 18
Method: Skin penetration of formulations described herein was measured according to the following procedure: the formulation was LABRASOL® (caprylocaproyl polyoxyl-8 glycerides), Plo-gel (Poloxomer 407, Lecithin, isopropyl palmitate). The formulation is applied to the center part of the circle and is rubbed to the skin using a […]. The sample is mounted to the top of a Franz diffusion cell with the outer layer of the skin facing upward. The receptor medium of the Franz cell is filled with phosphate buffer. The cap of the cell is mounted and clamped. This construct is placed inside the incubator/shaker for 18 hours at 32° C. (FIG. 14).

E-cadherin = test: TGFβ1-induced E-cadherin inhibition in HaCaT keratinocytes (immunoblot); assay type: cell-based; details: human keratinocytes; E-cadherin/β-tubulin ratio; FIG. 21, 24
Description: (§2) For western blotting in the wound healing analysis, epithelial-mesenchymal transition (EMT) is a critical element of epithelial biology, cancer development, and fibrosis. Chronic activation of TGF-β-signaling in the skin ultimately leads to fibrosis (keloid). EMT of keratinocytes is adaptive response in the normal wound healing process. It is characterized by decrease of E-cadherin (important element of keratinocyte integrity and tight junction formation) expression and upregulation of cellular fibronectin (Fibronectin-EDA) production. The latter is a very important protective element of epithelial cells during mucosal tissue repairs.
(§3) Total protein extracts were prepared from synchronized HaCaT cells at different times. […]
as §1

fibronectin-EDA = test: TGFβ1-induced fibronectin-EDA expression in HaCaT keratinocytes (immunoblot); assay type: cell-based; details: human keratinocytes; fibronectin-EDA/β-tubulin ratio; FIG. 21, 25
Description: as §2, §3, §1

[3] = system: keratins K5, K6, K14, K15, K16, K17; test: Keratin expression in HaCaT keratinocytes by Western blot; assay type: cell-based, human; details: 10 μM

Cc1c(C(=O)NN2CCCCC2)nn(-c2ccc(Cl)cc2Cl)c1-c1ccc(I)cc1 [AM251, N-(piperidin-1-yl)-5-(4-iodophenyl)-1-(2,4-dichlorophenyl)-4-methyl-1H-pyrazole-3-carboxamide]
TGFβ1-induced αSMA expression (TGFβ1-responsiveness) (αSMA): upregulating | cell responsiveness to TGFβ1 (CB1 receptor): modify

COc1ccc(C(=O)c2c(C)n(CCN3CCOCC3)c3cc(I)ccc23)cc1 [AM630, 6-iodopravadoline]
cell responsiveness to TGFβ1 (CB1 receptor): modify

CCCCCCC(C)(C)c1cc(O)c2c(c1)OC(C)(C)[C@@H]1CC=C(CO)C[C@@H]21 [HU-210, (6aR,10aR)-9-(hydroxymethyl)-6,6-dimethyl-3-(2-methyloctan-2-yl)-6H,6aH,7H,10H,10aH-benzo[c]isochromen-1-ol]
IFNγ/TNFα-induced CCL2/MCP-1 production (CCL2/MCP-1): upregulated; also recorded: highest effect; also recorded: increase

C=C(C)[C@@H]1CCC(C)=C[C@H]1c1c(O)cc(CCCCC)cc1O [INM-505, cannabidiols]
expression of K15 [1]: promote | K5 protein expression [1]: generally increases | K14 protein expression [1]: generally increases | K15 protein expression [1]: generally increases | K16 protein expression [1]: generally increases | K17 protein expression [1]: generally increases | IFNγ/TNFα-induced CCL2/MCP-1 production (CCL2/MCP-1): upregulated; also recorded: increase | IL-8 production (IL-8): highly selective inhibitory effect | production of IL-6 by IFNγ/TNFα (IL-6): attenuate | location of cannabinoid molecules in skin [2]: located in keratinocytes and basal cells

CCCCCc1cc(O)c(C/C=C(\C)CCC=C(C)C)c(O)c1 [INM-513, cannabigerol]
IFNγ/TNFα-induced CCL2/MCP-1 production (CCL2/MCP-1): upregulated

CCCCCc1cc(O)c2c(c1)OC(C)(C)c1ccc(C)cc1-2 [INM-517, 6,6,9-trimethyl-3-pentylbenzo[c]chromen-1-ol]
expression of K15 [1]: promote | K5 protein expression [1]: generally increases | K14 protein expression [1]: generally increases | K15 protein expression [1]: generally increases | K16 protein expression [1]: generally increases | K17 protein expression [1]: generally increases | TGF-β-induced downregulation of E-cadherin (E-cadherin): strong and potent effect | TGF-β-induced fibronectin-EDA expression (fibronectin-EDA): preserving | K14 gene expression [3]: downregulated

Cc1ccc(Cn2nc(C(=O)N[C@@H]3C(C)(C)[C@@H]4CC[C@@]3(C)C4)cc2-c2ccc(Cl)c(C)c2)cc1 [SR144528, 5-(4-chloro-3-methylphenyl)-1-[(4-methylphenyl)methyl]-N-[(1S,2S,4R)-1,3,3-trimethylbicyclo[2.2.1]heptan-2-yl]-1H-pyrazole-3-carboxamide]
basal CCL2 production (CCL2/MCP-1; HaCaT, 72 hr, method prints 1 mM, b249 prints 1 μM): did not significantly change | IFNγ/TNFα-induced CCL2/MCP-1 production (CCL2/MCP-1; HaCaT, IFNγ and TNFα 10 ng/ml, 72 hr, method prints 1 mM, b249 prints 1 μM): did not significantly change

CCCCCc1cc(O)c2c(c1)OC(C)(C)[C@@H]1CCC(C)=C[C@@H]21 [Δ^9-tetrahydrocannabinol]
IFNγ/TNFα-induced CCL2/MCP-1 production (CCL2/MCP-1): no significant effects | basal CCL2 production (CCL2/MCP-1): no significant effects
